Reference: patent publication US20240246977A1, “DEGRADATION OF BRUTON'S TYROSINE KINASE (BTK) BY CONJUGATION OF BTK INHIBITORS WITH E3 LIGASE LIGAND AND METHOD OF USE” (BeiGene Switzerland GmbH, priority 2021, published 2024)

Columns and labels:
HEK-293 cells = assay: HEK-293 cytotoxicity detection (CellTiter-Glo); type: cell-based; settings: Homo sapiens, 72 h, 72 h incubation, CellTiter-Glo luminescence, read-out: HEK293
Procedure: HEK-293 cells were treated with compounds diluted in 0.2% DMSO, dilution was done according to the following protocol: (1) making 500× stock solution in DMSO from 5 mM by 4-fold dilution, total 8 doses were included; (2) making 2× solution in cell culture medium by transferring 0.5 ul 500× stock solution into 125 ul medium; (3) adding 50 ul of 2× solution to cells for incubation of 72 h.
25 μl of the CellTiter-Glo®Reagent [(Promega)—Cat No. G7572] was added to each well in the 96-well plate. The contents were mixed for 2 minutes on an orbital shaker to induce cell lysis. The plate was then allowed to incubate at room temperature for 10 minutes to stabilize luminescent signal. Luminescence was recorded on BMG PheraStar with luminescence protocol.
The inhibition percentage of the compound was calculated by the following equation: Inhibition percentage of Compound=100−100×(Signal-low control)/(High control-low control), wherein signal=each test compound group
High control=Cell group with added DMSO and without compound, indicating cells proliferation with no inhibition;
Imax is the maximum percentage of inhibition.
The IC50 value of a compound can be obtained by fitting the following equation
(§1) Wherein, X and Y are known values, and IC50, Hillslope, Top and Bottom are the parameters obtained by fitting with software. Y is the inhibition percentage (calculated from the equation), X is the concentration of the compound; IC50 is the concentration of the compound when the 50% inhibition is reached. The smaller the IC50 value is, the stronger the inhibitory ability of the compound is. Vice versa, the higher the IC50 value is, the weaker the ability the inhibitory ability of the compound is; Hillslope represents the slope of the fitted curve, generally around 1*; Bottom represents the minimum value of the curve obtained by data fitting, which is generally 0%±20%; Top represents the maximum value of the curve obtained by data fitting, which is generally 100%±20%. The experimental data were fitted by calculating and analyzing with Dotmatics data analysis software.

BTK = BTK (Homo sapiens, UniProt Q06187); assay: BTK cell degradation in TMD-8 cells, HTRF assay; type: cell-based; set-up: endogenous in cells; host or cells: TMD-8 cells; settings: 6 h treatment, IC50 (DC50) of BTK degradation
Chain of BTK (Q06187 whole entry): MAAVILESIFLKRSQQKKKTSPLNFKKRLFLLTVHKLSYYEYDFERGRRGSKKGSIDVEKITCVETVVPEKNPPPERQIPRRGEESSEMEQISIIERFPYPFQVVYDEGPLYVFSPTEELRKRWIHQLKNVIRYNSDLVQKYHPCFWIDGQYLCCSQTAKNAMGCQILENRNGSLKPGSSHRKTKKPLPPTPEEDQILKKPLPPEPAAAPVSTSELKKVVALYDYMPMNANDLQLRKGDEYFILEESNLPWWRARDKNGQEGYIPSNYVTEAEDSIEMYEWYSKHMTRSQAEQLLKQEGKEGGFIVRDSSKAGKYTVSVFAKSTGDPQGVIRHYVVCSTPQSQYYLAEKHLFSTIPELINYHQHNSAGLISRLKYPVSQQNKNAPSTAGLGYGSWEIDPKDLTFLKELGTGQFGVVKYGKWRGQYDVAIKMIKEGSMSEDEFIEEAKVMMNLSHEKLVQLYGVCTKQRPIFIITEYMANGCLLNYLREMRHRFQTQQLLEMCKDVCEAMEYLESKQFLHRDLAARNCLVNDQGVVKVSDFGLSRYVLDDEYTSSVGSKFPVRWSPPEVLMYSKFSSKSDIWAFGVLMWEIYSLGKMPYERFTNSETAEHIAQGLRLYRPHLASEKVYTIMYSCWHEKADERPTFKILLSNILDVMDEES
Procedure: TMD-8 cells were treated with compounds diluted in 0.2% DMSO, dilution was done according to the following protocol: (1) making 500× stock solution in DMSO from 1 mM by 6-fold dilution, total 8 doses were included; (2) making 2× solution in cell culture medium by transferring 0.5 μl 500× stock solution into 125 μl medium; (3) adding 15 μl of 2× solution to cells for incubation of 6 h.
After 6 h treatment, 10 μl 14×lysis buffer was added to each well; the plate was sealed and incubated for 30 min at room temperature on a plate shaker; Once the cells was lysed, 16 μL of cell lysate were transferred to a PE 384-well HTRF detection plate; 4 μL of pre-mixed HTRF antibodies were added to each well; the plate was covered with a plate sealer, and then spinned at 1000 rpm for 1 min, then incubated overnight at room temperature; the results were read on BMG PheraStar with HTRF protocol (337 nm-665 nm-620 nm).
The inhibition (degradation) percentage of the compound was calculated by the following equation: Inhibition percentage of Compound=100−100×(Signal-low control)/(High control-low control), wherein signal=each test compound group
High control=Cell group with added DMSO and without compound, indicating microplate readings without BTK degradation;
Dmax is the maximum percentage of inhibition (degradation).
The IC50 (DC50) value of a compound can be obtained by fitting the following equation
Y=Bottom+(TOP−Bottom)/(1+((IC50/X)^hillslope))
as §1, with “wherein,” for “Wherein,”

DC50 (BTK)	SMILES	IC50 (HEK-293 cells)
1.26 nM	NC(=O)c1c(-c2ccc(Oc3ccccc3)cc2)nn2c1Nc1ccc(NC(=O)C3CCN(CC4CCN(c5ccc6c(c5)C(=O)N(C5CCC(=O)NC5=O)C6=O)CC4)CC3)cc1CC2 (stereo not shown) [Example A4, 7-(1-((1-(2-(2,6-dioxopiperidin-3-yl)-1,3-dioxoisoindolin-5-yl)piperidin-4-yl)methyl)piperidine-4-carboxamido)-2-(4-phenoxyphenyl)-9,10-dihydro-4H-benzo[d]pyrazolo[1,5-a][1,3]diazepine-3-carboxamide]	78.1 nM
1.45 nM	NC(=O)c1c(-c2ccc(Oc3ccccc3)cc2)nn2c1Nc1ccc(NC3CCN(CC4CCN(c5cc6c(cc5F)C(=O)N(C5CCC(=O)NC5=O)C6=O)CC4)CC3)cc1CC2 (stereo not shown) [Example A5, 7-((1-((1-(2-(2,6-dioxopiperidin-3-yl)-6-fluoro-1,3-dioxoisoindolin-5-yl)piperidin-4-yl)methyl)piperidin-4-yl)amino)-2-(4-phenoxyphenyl)-9,10-dihydro-4H-benzo[d]pyrazolo[1,5-a][1,3]diazepine-3-carboxamide]	83.3 nM
3.42 nM	NC(=O)c1c(-c2ccc(Oc3ccccc3)cc2)nn2c1Nc1ccc(N3CCN(CC4CCN(c5ccc6c(c5)C(=O)N(C5CCC(=O)NC5=O)C6=O)CC4)CC3)cc1CC2 (stereo not shown) [Example A6, 7-(4-((1-(2-(2,6-dioxopiperidin-3-yl)-1,3-dioxoisoindolin-5-yl)piperidin-4-yl)methyl)piperazin-1-yl)-2-(4-phenoxyphenyl)-9,10-dihydro-4H-benzo[d]pyrazolo[1,5-a][1,3]diazepine-3-carboxamide]	163 nM
2.51 nM	NC(=O)c1c(-c2ccc(Oc3ccccc3)cc2)nn2c1Nc1ccc(N3CCN(c4ccc5c(c4)C(=O)N(C4CCC(=O)NC4=O)C5=O)CC3)cc1CC2 (stereo not shown) [Example A7, 7-(4-(2-(2,6-dioxopiperidin-3-yl)-1,3-dioxoisoindolin-5-yl)piperazin-1-yl)-2-(4-phenoxyphenyl)-9,10-dihydro-4H-benzo[d]pyrazolo[1,5-a][1,3]diazepine-3-carboxamide]	178 nM
2.97 nM	NC(=O)c1c(-c2ccc(Oc3ccccc3)cc2)nn2c1Nc1ccc(NC3CCN(c4ccc5c(c4)C(=O)N(C4CCC(=O)NC4=O)C5=O)CC3)cc1CC2 (stereo not shown) [Example A8, 7-((1-(2-(2,6-dioxopiperidin-3-yl)-1,3-dioxoisoindolin-5-yl)piperidin-4-yl)amino)-2-(4-phenoxyphenyl)-9,10-dihydro-4H-benzo[d]pyrazolo[1,5-a][1,3]diazepine-3-carboxamide]	280 nM
2.26 nM	NC(=O)c1c(-c2ccc(Oc3ccccc3)cc2)nn2c1Nc1ccc(C(=O)NC3CCN(c4ccc5c(c4)C(=O)N(C4CCC(=O)NC4=O)C5=O)CC3)cc1CC2 (stereo not shown) [Example A9, N7-(1-(2-(2,6-dioxopiperidin-3-yl)-1,3-dioxoisoindolin-5-yl)piperidin-4-yl)-2-(4-phenoxyphenyl)-9,10-dihydro-4H-benzo[d]pyrazolo[1,5-a][1,3]diazepine-3,7-dicarboxamide]	65.6 nM
1.75 nM	NC(=O)c1c(-c2ccc(Oc3ccccc3)cc2)nn2c1Nc1ccc(C(=O)NC3CCN(CC4CCN(c5cc6c(cc5F)C(=O)N(C5CCC(=O)NC5=O)C6=O)CC4)CC3)cc1CC2 (stereo not shown) [Example A10, N^7-(1-((1-(2-(2,6-dioxopiperidin-3-yl)-6-fluoro-1,3-dioxoisoindolin-5-yl)piperidin-4-yl)methyl)piperidin-4-yl)-2-(4-phenoxyphenyl)-9,10-dihydro-4H-benzo[d]pyrazolo[1,5-a][1,3]diazepine-3,7-dicarboxamide]	121 nM
5.71 nM	NC(=O)c1c(-c2ccc(Oc3ccccc3)cc2)nn2c1Nc1ccc(NC(=O)C3CCN(c4cccc5c4C(=O)N(C4CCC(=O)NC4=O)C5=O)CC3)cc1CC2 (stereo not shown) [Example A11, 7-(1-(2-(2,6-dioxopiperidin-3-yl)-1,3-dioxoisoindolin-4-yl)piperidine-4-carboxamido)-2-(4-phenoxyphenyl)-9,10-dihydro-4H-benzo[d]pyrazolo[1,5-a][1,3]diazepine-3-carboxamide]	826 nM
4.58 nM	NC(=O)c1c(-c2ccc(Oc3ccccc3)cc2)nn2c1Nc1ccc(C(=O)N[C@H]3CC[C@H](CN4CCN(c5cc6c(cc5F)C(=O)N(C5CCC(=O)NC5=O)C6=O)CC4)CC3)cc1CC2 (stereo partly shown) [Example A12, N^7-((1r,4r)-4-((4-(2-(2,6-dioxopiperidin-3-yl)-6-fluoro-1,3-dioxoisoindolin-5-yl)piperazin-1-yl)methyl)cyclohexyl)-2-(4-phenoxyphenyl)-9,10-dihydro-4H-benzo[d]pyrazolo[1,5-a][1,3]diazepine-3,7-dicarboxamide]	396 nM
2.79 nM	NC(=O)c1c(-c2ccc(Oc3ccccc3)cc2)nn2c1Nc1ccc(C(=O)N3CCN(CC4CCN(c5ccc6c(c5)C(=O)N(C5CCC(=O)NC5=O)C6=O)CC4)CC3)cc1CC2 (stereo not shown) [Example A13, 7-(4-((1-(2-(2,6-dioxopiperidin-3-yl)-1,3-dioxoisoindolin-5-yl)piperidin-4-yl)methyl)piperazine-1-carbonyl)-2-(4-phenoxyphenyl)-9,10-dihydro-4H-benzo[d]pyrazolo[1,5-a][1,3]diazepine-3-carboxamide]	167 nM
3.22 nM	NC(=O)c1c(-c2ccc(Oc3ccccc3)cc2)nn2c1Nc1ccc(C(=O)N3CCC(CN4CCN(c5cc6c(cc5F)C(=O)N(C5CCC(=O)NC5=O)C6=O)CC4)CC3)cc1CC2 (stereo not shown) [Example A14, 7-(4-((4-(2-(2,6-dioxopiperidin-3-yl)-6-fluoro-1,3-dioxoisoindolin-5-yl)piperazin-1-yl)methyl)piperidine-1-carbonyl)-2-(4-phenoxyphenyl)-9,10-dihydro-4H-benzo[d]pyrazolo[1,5-a][1,3]diazepine-3-carboxamide]	509 nM
9.62 nM	NC(=O)c1c(-c2ccc(Oc3ccccc3)cc2)nn2c1Nc1cc(NC(=O)C3CCN(CC4CCN(c5ccc6c(c5)C(=O)N(C5CCC(=O)NC5=O)C6=O)CC4)CC3)ccc1CC2 (stereo not shown) [Example A18, 6-(1-((1-(2-(2,6-dioxopiperidin-3-yl)-1,3-dioxoisoindolin-5-yl)piperidin-4-yl)methyl)piperidine-4-carboxamido)-2-(4-phenoxyphenyl)-9,10-dihydro-4H-benzo[d]pyrazolo[1,5-a][1,3]diazepine-3-carboxamide]	2510 nM
13.4 nM	NC(=O)c1c(-c2ccc(Oc3ccccc3)cc2)nn2c1Nc1cc(C(=O)N3CCC(CN4CCN(c5cc6c(cc5F)C(=O)N(C5CCC(=O)NC5=O)C6=O)CC4)CC3)ccc1CC2 (stereo not shown) [Example A20, 6-(4-((4-(2-(2,6-dioxopiperidin-3-yl)-6-fluoro-1,3-dioxoisoindolin-5-yl)piperazin-1-yl)methyl)piperidine-1-carbonyl)-2-(4-phenoxyphenyl)-9,10-dihydro-4H-benzo[d]pyrazolo[1,5-a][1,3]diazepine-3-carboxamide]	> 10000 nM
1.51 nM	NC(=O)c1c(-c2ccc(Oc3ccccc3)cc2)nn2c1Nc1ccc(N3CCN(CC4CCN(c5ccc(N6CCC(=O)NC6=O)cc5)CC4)CC3)cc1CC2 [Example A21, 7-(4-((1-(4-(2,4-dioxotetrahydropyrimidin-1(2H)-yl)phenyl)piperidin-4-yl)methyl)piperazin-1-yl)-2-(4-phenoxyphenyl)-9,10-dihydro-4H-benzo[d]pyrazolo[1,5-a][1,3]diazepine-3-carboxamide]	62.1 nM
